Experimental data reported in patent US20090247520A1, “INHIBITORS OF ANTIGEN RECEPTOR-INDUCED NF-kappa B ACTIVATION” (The Burnham Institute for Medical Research, priority 2008, published 2009).

Key:
p65-DNA binding activity = p65-DNA binding activity in anti-IgM-stimulated CLL B-cells; type: cell-based; details: human CLL B-cells
Protocol: (A) Isolated mouse primary splenocytes were cultured with anti-CD3/anti-CD28 (0.3 μg/mL each) or anti-IgM (3 μg/mL) for 48 h, then 1 μCi 3H-Thymidine was added for 12 h and incorporation into DNA was measured, expressing data as fold increase above unstimulated cells (mean±SD; n=3). (B-D) Primary splenocytes were pretreated for 2 h with IKK inhibitor, BMS-335541 (B), PKC inhibitor, Bisindolylmaleimide I (C) or CID-2858522 (D), then stimulated with anti-CD3/anti-CD28 (0.3 μg/mL) or anti-IgM (3 μg/mL) for 48 h. 1 μCi 3H-Thymidine was added for 12 h and incorporation into DNA was measured, expressing data as percent inhibition relative to control cells treated with DMSO (mean±SD; n=3). […] Levels of TRAF1 and β-actin were assessed by immunoblotting, quantified by densitometry and TRAF1 results reported relative to control cells, after normalization for β-actin (mean±SD). […] Then nuclear extracts were prepared and p65-DNA-binding activity was measured (mean±SD; n=3).
NF-κB DNA-binding activity assays. Nuclear extracts were prepared from 10 cm^2 plates of confluent cells using a kit (Active Motif, Carsbad, Calif.). The total protein content of nuclear fractions was quantified by the Bradford method, followed by storage at −80° C. […]

MDP (NOD2) induced IL-6 = experiment: IL-6 in THP.1 cell cultures stimulated with MDP; type: cell-based; details: data not shown
Text: FIG. 1 is a flow chart of screening and counter-screenings for selective inhibitors of antigen-receptor induced NF-κB pathway. A total of 114,889 compounds were screened. From a screen of 53,280 commercially available compounds (left column), 519 hits were obtained, of which 248 reconfirmed using the same primary screening assay. […] From these 11 active compounds, one hit, CID-2858522, inhibited PMA/Ionomycin-induced production of cytokine IL-8 by the HEK293 cell line. CID-2858522 was then characterized (right column). PDB was substituted for PMA to confirm suppression of an alternative PKC activator. Pathway selectivity was assessed using panels of cell lines, starting with HEK293 cells in which each of the remaining NF-κB activation pathways was stimulated, showing inhibition only of PMA/Ionomycin-induced NF-κB reporter gene activity (panel 1). […]

Raf = experiment: KINOMEscan competition binding assay, Raf; set-up: species or system human; details: 10 μM
Text: CID-2858522 is not a potent protein kinase inhibitor. Protein kinases play critical roles in NF-κB activation. PKCs are proximal kinases in the NF-κB pathways activated by PMA/Ionomycin and by T- and B-cell antigen receptors, while the IKKs are distal kinases operating in the terminal segments of these and other NF-κB activation pathways. We therefore tested whether CID-2858522 inhibits members of these kinase families by in vitro kinase assays. For these experiments, we tested PKC-beta and PKC-theta (the PKC family members implicated in TCR/BCR signaling), and IKK-beta (a component of the IKK complex) (FIG. 6). […] In addition to assessing these three kinases by conventional in vitro kinase assays, a kinome screen was performed using a high throughput screening method, KINOMEscan™, which is an active-site dependent competition binding assay in which human kinases of interest are fused to a proprietary tag (Ambit). The amount of kinase bound to an immobilized, active-site directed ligand is measured in the presence and absence of the test compound. […] Thus, CID-2858522 inhibits none of the protein kinases previously implicated in regulating NF-κB.
In Vitro Kinase Assays. PKC-beta, PKC-theta and IKK-beta in vitro kinase assays were performed using the HTScan Kinase Assay Kit (Cell Signaling, Danvers, Mass.) according to manufacturer's protocols. […]

[1] = tested on: TNF-α-induced IKK-β phosphorylation; experiment: TNF-α-induced IKK-β phosphorylation in HEK293 cells; type: cell-based; details: 4 μM
[2] = tested on: PMA/Ionomycin-induced p65-RelA DNA-binding activity; experiment: NF-κB p65 DNA-binding activity, PMA/Ionomycin-stimulated HEK293 cells; type: cell-based
Protocol: (A) Structures of two hit compounds, CID-2858522 (left) and CID-2998237 (right) are shown; (B, C) 293-NF-κB-luc cells were pretreated for 2 hrs with various concentration of either CID-2858522 (B) or CID-29982387 (C) and then stimulated with TNF (10 ng/mL) or PMA/lonomycin (10 ng/mL; 5 ng/mL) for 16 h. Luciferase activity was measured and data were expressed as a percentage relative to control treatment with DMSO only (mean±SD; n=3). (D) 293-NF-κB-luc cells were pretreated for 2 h with various concentrations of CID-2858522 or CID-2998237, then stimulated with PMA/lonomycin for 16 h. IL-8 release into the medium was measured, expressing data as a percentage relative to control cultures treated with DMSO (mean±SD; n=3). (E) 293-NF-κB-luc cells were pretreated with CID-2858522 and then stimulated with PDBu for 16 h, IL-8 production and NF-κB luciferase activity were measured as above. (F) 293-NF-κB-luc cells were pretreated for 2 h with various concentrations of CID-2858522 or a PKC inhibitor (Bisindolylmaleimide I) at 1 μM followed by PMA/Ionomycin (10 ng/mL) stimulation for 2 h, then p65-DNA-binding activity was measured in nuclear extracts (10 μg protein), expressing data as fold-increase relative to unstimulated cells (mean±SD; n=3).
NF-κB DNA-binding activity assays. Nuclear extracts were prepared from 10 cm^2 plates of confluent cells using a kit (Active Motif, Carsbad, Calif.). The total protein content of nuclear fractions was quantified by the Bradford method, followed by storage at −80° C. NF-κB DNA-binding activity was measured in nuclear extracts (10 μg protein) using an immunoassay method (TransAM Kit [Active Motif]) employing 96 well plates coated with double-strand oligodeoxynucleotides containing NF-κB consensus binding site (5′-[…]-3′) and anti-p65 antibody, which was detected by secondary horseradish peroxidase (HRP)-conjugated antibody, using a calorimetric substrate with absorbance read at 450 nm within 5 minutes using a spectrophotometer, SpectraMax M5 (Molecular Devices, Sunnyvale, Calif.).

With `Cc1cc2nc(NCCCO)n(CC(=O)c3cc(C(C)(C)C)c(O)c(C(C)(C)C)c3)c2cc1C` [Compound 1, 2-(2-(3-Hydroxypropylamino)-5,6-dimethyl-1H-benzo[d]imidazol-1-yl)-1-(3,5-di-tert-butyl-4-hydroxyphenyl)ethanone] the “suppression of anti-IgM-induced p65-DNA binding activity” value (p65-DNA binding activity) was “direct suppression”, the “inhibition of MDP-induced NF-κB (IL-6 in THP.1)” value (MDP (NOD2) induced IL-6) was “failed to inhibit” and the “inhibition of Raf” value (Raf) was 57%. For the same compound, the “inhibition of TNF-α-induced IKK-β phosphorylation” value [1] was “failed to inhibit”, the “concentration of maximal suppression of NF-κB DNA-binding activity” value ([2]; HEK293) was ~1 µM and the “lowest concentration with evident suppression of NF-κB DNA-binding activity” value ([2]; HEK293) was 0.1 µM. For the same compound, the “inhibition of p65-RelA DNA-binding activity” value ([2]; compared to PKC inhibitor) was “only partially inhibited”.
